The target in data set [1] is benzodiazepine receptor of the rat cerebral cortex. In words: Benzodiazepine receptor binding, competition with [3H]flunitrazepam. The settings on record: [3H]flunitrazepam 0.4 nM, 4° C., 60 minutes. The protocol: Benzodiazepine Receptor Binding. Compound 1 and Indiplon were compared in their ability to bind to compete with [^3H] flunitrazepam (0.4 nM) for binding to the benzodiazepine receptor of the rat cerebral cortex using the method of Speth, R C et al., 1979, Life Sci., 24:351-358. Varying concentrations of Indiplon or Compound 1 (30 pM-1 μM) were used. Diazepam (3 μM) was used as a non-specific receptor binding compound. Binding was allowed to proceed at 4° C. for 60 minutes. Quantification of binding was determined by scintillation counting.

Data set [2] in a line: Co-incubation of Compound 1 and Indiplon with human liver microsomes. The class given is in vitro ADME. The protocol: Co-incubation of Compound 1 and Indiplon with Human Liver Microsomes: In another set of experiments Compound 1 and Indiplon were incubated together with human liver microsomes and their metabolism followed over time to eliminate any potential variability in samples. The reaction mixture compositions utilized in these experiments were as follows:
Reaction Mixture Composition A:
Reaction Mixture Composition B:
Reaction Mixture Composition C:
HPLC-grade solvents were used for preparation of all solutions. Dosing solutions of test agents were initially prepared at five times the final concentrations of the various reaction mixtures indicated above. Dosing solutions were warmed to 37° C. prior to the start of the assay. Two sets of triplicate wells were prepared in a 96-well deep well plate for each reaction mixture and warmed to 37° C. At the start of the assay, dosing solutions were diluted five-fold into the reaction wells. The reaction plate was incubated at 37° C., and 30 μL aliquots removed immediately after start (15 sec), and after each of 10 min, 20 min, 30 min, 40 min and 60 min of reaction. The aliquots were added to 30 μL of ice cold STOP Solution (acetonitrile containing 0.3% acetic acid with 3 mM haloperidol as an internal standard) in a separate 96-well plate. The stopped reactions were incubated at least 10 min at −20° C., and 30 μL of water was added. The plates were centrifuged for 15 min at 2000 rpm, 4° C. Approximate 60 μL of the supernatant was removed without disturbing the pellet and transferred to a fresh 96-well plate for analysis. Analysis samples were stored at −20° C. and analyzed by LC-MS.
For orientation: Microsomes from liver hold many membrane-bound enzymes, among them those of drug oxidation.

Data set [3] is described as follows: Human liver microsome metabolic stability assay (separate incubations). The settings on record: 1.0 mg/mL human liver microsomes. It counts as in vitro ADME. An excerpt: Human Microsomal Assay: The metabolic stability of the present compounds may be evaluated in one or more microsomal assays that are known in the art. See, for example, Obach, R. S. Drug Metab Disp 1999, 27, p. 1350 “Prediction of human clearance of twenty-nine drugs from hepatic microsomal intrinsic clearance data: An examination of in vitro half-life approach and nonspecific binding to microsomes”; Houston, J. B. et al., Drug Metab Rev 1997, 29, p. 891 “Prediction of hepatic clearance from microsomes, hepatocytes, and liver slices”; Houston, J. B. Biochem Pharmacol 1994, 47, p. 1469 “Utility of in vitro drug metabolism data in predicting in vivo metabolic clearance”; Iwatsubo, T et al., Pharmacol Ther 1997, 73, p. 147 “Prediction of in vivo drug metabolism in the human liver from in vitro metabolism data”; and Lave, T. et al., Pharm Res 1997, 14, p. 152 “The use of human hepatocytes to select compounds based on their expected hepatic extraction ratios in humans”; each of which are incorporated herein in their entirety.
The objectives of this study were to determine the metabolic stability of the test compounds in pooled liver microsomal incubations and to perform full scan LC-MS analysis for the detection of major metabolites. Samples of the test compounds, exposed to pooled human liver microsomes, were analyzed using HPLC-MS (or MS/MS) detection. For determining metabolic stability, multiple reaction monitoring (MRM) was used to measure the disappearance of the test compounds. For metabolite detection, Q1 full scans were used as survey scans to detect the major metabolites.
Experimental Procedures: Human liver microsomes were obtained from Absorption Systems L.P. (Exton, Pa.). Details about the matrices used in the experiments are shown below. The incubation mixture was prepared as follows:
Reaction Mixture Composition
Incubation of Test Compounds with Liver Microsomes: The reaction mixture, minus cofactors, was prepared. An aliquot of the reaction mixture (without cofactors) was incubated in a shaking water bath at 37° C. for 3 minutes. Another aliquot of the reaction mixture was prepared as the negative control. The test compound was added into both the reaction mixture and the negative control at a final concentration of 1 μM. An aliquot of the reaction mixture was prepared as a blank control, by the addition of plain organic solvent (not the test compound). The reaction was initiated by the addition of cofactors (not into the negative controls), and then incubated in a shaking water bath at 37° C. Aliquots (200 μL) were withdrawn in triplicate at 0, 15, 30, 60, and 120 minutes and combined with 800 μL of ice-cold 50/50 acetonitrile/dH2O to terminate the reaction. The positive controls, testosterone and propranolol, were run simultaneously with the test compounds in separate reactions.
All samples were analyzed using LC-MS (or MS/MS). An LC-MRM-MS/MS method was used for metabolic stability. Also, Q1 full scan LC-MS methods were performed on the blank matrix and the test compound incubation samples. The Q1 scans served as survey scans to identify any sample unique peaks that might represent the possible metabolites. The masses of these potential metabolites can be determined from the Q1 scans.

For data set [4], the target named is benzodiazepine site on the GABAA receptor (rat cortex). The experiment in a line: Inhibition of [3H]flunitrazepam binding to rat cortex membranes. The conditions noted are these: read-out: IC50 for displacing [3H]flunitrazepam binding to rat cortex.
Data set [5] concerns GABAA receptor (rat cortex membranes). In words: Enhancement of [35S]TBPS binding to rat cortex membranes. An excerpt:
A further index of activity at the benzodiazepine site on the GABAA receptor is the ability to increase the binding of [^35S] t-butylbicyclophosphorothionate (TBPS) to rat cortex membranes. TBPS binds to a site on the GABAA receptor which is closely associated with the chloride channel, and an increase in TBPS binding correlates with increased activation of the chloride conductance (i.e., enhanced GABAA receptor function). Compounds which act as agonists at the benzodiazepine site increase TBPS binding to varying degrees, which reflects their relative efficacies.

From patent US20080058351A1, “Novel heterobicyclic compounds” (Concert Pharmaceuticals Inc., priority 2006, published 2008) come the findings set out here.

Consider `CC(=O)N(C)c1cccc(-c2ccnc3c(C(=O)c4cccs4)cnn23)c1` [Compound 1, N-d3-Methyl-N-{3-[3-(thiophene-2-carbonyl)-pyrazolo[1,5-a]pyrimidin-7-yl]-phenyl}-acetamide], for which, in data set [1], the IC50 (commonly the concentration needed to halve the response being measured) stood at 2.9 nM and affinity was put at a Ki of 2.4 nM.
Consider `[2H]C([2H])([2H])N(C(C)=O)c1cccc(-c2ccnc3c(C(=O)c4cccs4)cnn23)c1` [Compound 1, N-d3-Methyl-N-{3-[3-(thiophene-2-carbonyl)-pyrazolo[1,5-a]pyrimidin-7-yl]-phenyl}-acetamide], for which the half-life – broadly, the time needed for the level to fall by half in the phase considered – is 4.557 h in data set [2] (0.1 μM each, 1.0 mg/ml human microsomes (FIG. 1 panel B)); 2.543 h in data set [2] (0.2 μM each, 2.0 mg/ml human microsomes (FIG. 1 panel C)); 3.405 h in data set [2] (0.5 μM each, 1.0 mg/ml human microsomes (FIG. 1 panel A)). For the same compound, the “ratio of half lives of Compound 1 to Indiplon” value in data set [2] (0.1 μM each, 1.0 mg/ml human microsomes (panel B)) amounted to 1.257; in data set [2] (0.2 μM each, 2.0 mg/ml human microsomes (panel C)), 1.312; in data set [2] (0.5 μM each, 1.0 mg/ml human microsomes (panel A)), 1.260; in data set [3] (1 μM), 1.261. In data set [3] (1 μM test compound), this compound displayed a half life of 1.24 h. The “% remaining after 60 minutes of exposure” value in data set [3] (1 μM test compound) worked out at 66%. For the same compound, the “% remaining after 120 minutes of exposure” value in data set [3] (1 μM test compound) amounted to 59%.
`CC(=O)N(C)c1cccc(-c2ccnc3c(C(=O)c4cccs4)cnn23)c1` [Indiplon, N-methyl-N-[3-[3-(2-thienylcarbonyl)-pyrazolo[1,5-a]pyrimidin-7-yl]phenyl]acetamide]: in data set [2] (human liver microsomes, 0.1 μM each, 1.0 mg/ml human microsomes (FIG. 1 panel B)), the half-life at 0.1 μM was found to be 3.62 h. For the same compound, the half-life at 0.2 μM in data set [2] (human liver microsomes, 0.2 μM each, 2.0 mg/ml human microsomes (FIG. 1 panel C)) came out at 1.94 h. Besides, in data set [2] (human liver microsomes, 0.5 μM each, 1.0 mg/ml human microsomes (FIG. 1 panel A)), the half-life at 0.5 μM is 2.7 h. Further, in data set [1], the 50% inhibitory concentration (IC50) worked out at 3.6 nM and the Ki (usually a measure of affinity in units of concentration, obtained from inhibition or displacement) is 3 nM. Also, in data set [3] (1 μM test compound), the “% remaining after 60 minutes of exposure” value is 50% and the “% remaining after 120 minutes of exposure” value is given as 42%. The compound also registered a half-life at 1 μM in data set [3] (pooled human liver microsomes, 1 μM test compound) of 0.983 h.
Turning to `CN1C(=O)CN=C(c2ccccc2)c2cc(Cl)ccc21` [diazepam], the half-maximal inhibitory concentration (IC50) in data set [4] was 17 nM. Besides, the “Emax (maximum enhancement of TBPS binding over the concentration range employed)” value in data set [5] was found to be 55%.
For `CN1C(=O)CN=C(c2ccccc2F)c2cc([N+](=O)[O-])ccc21` [flunitrazepam], the IC50 in data set [4] came out at 114 nM.
With `CCN(CC)CCN1C(=O)CN=C(c2ccccc2F)c2cc(Cl)ccc21` [flurazepam], the “Emax (maximum enhancement of TBPS binding over the concentration range employed)” value in data set [5] is 71%.
Turning to `Cc1nnc2n1-c1ccc(Cl)cc1C(c1ccccc1Cl)=NC2` [triazolam], in data set [4], the concentration for half-maximal inhibition (IC50) was determined as 0.5 nM. Besides, the “Emax (maximum enhancement of TBPS binding over the concentration range employed)” value in data set [5] is 78%.
`Cc1ccc(-c2nc3ccc(C)cn3c2CC(=O)N(C)C)cc1` [zolpidem]: the IC50 in data set [4] was 26 nM.
